The assay concerns the target T1, apo-sMlaD (Escherichia coli, UniProt P64604).
T1 sequence (P64604 29-183 limits assumed): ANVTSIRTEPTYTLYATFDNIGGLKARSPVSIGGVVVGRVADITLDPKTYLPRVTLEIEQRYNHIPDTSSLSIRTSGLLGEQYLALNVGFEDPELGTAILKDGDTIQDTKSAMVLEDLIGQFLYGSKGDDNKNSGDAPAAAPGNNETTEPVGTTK
The experiment in a line: isothermal titration calorimetry. Format: binding.

In turn, `C[C@H](CCC(=O)O)[C@H]1CC[C@H]2[C@@H]3CC[C@@H]4C[C@H](O)CC[C@]4(C)[C@H]3C[C@H](O)[C@]12C` [DOC] returned a dissociation constant Kd of approximately 100 µM.
`C[C@H](CCC(=O)O)[C@H]1CC[C@H]2[C@@H]3[C@H](O)C[C@@H]4C[C@H](O)CC[C@]4(C)[C@H]3CC[C@]12C` [CDOC]: binding was put at a Kd of 61.6 ± 15.6 µM.

For the origin of these results see paper doi:10.1101/2023.06.27.546672v1 (biorxiv, 2023).
